Test system: MV-4-11 cells
Assay: Gene expression microarray analysis (Affymetrix PrimeView) and GSEA
Format: cell-based, human
Design: RFU PODN (11730768_x_at) / Fold change /veh PODN (11730768_x_at) / RFU LINC00158 (11744669_a_at) / Fold change /veh LINC00158 (11744669_a_at) / RFU DUSP10 (11751237_a_at) / Fold change /veh DUSP10 (11751237_a_at) / RFU ID3 (11757404_x_at) / Fold change /veh ID3 (11757404_x_at) / RFU PLEKHG5 (11737974_s_at) / Fold change /veh PLEKHG5 (11737974_s_at) / RFU LRRC4B (11730491_at) / Fold change /veh LRRC4B (11730491_at) / RFU GIMAP4 (11747438_a_at) / Fold change /veh GIMAP4 (11747438_a_at) / RFU KRT8 (11758183_x_at) / Fold change /veh KRT8 (11758183_x_at) / RFU CNN1 (11734310_a_at) / Fold change /veh CNN1 (11734310_a_at) / RFU VPS37D (11726825_at) / Fold change /veh VPS37D (11726825_at) / RFU C10orf10 (11716522_x_at) / Fold change /veh C10orf10 (11716522_x_at) / RFU KIR2DL2 /// KIR2DL4 /// KIR2DL5A /// KIR2DL5B /// KIR2DS1 /// KIR2DS2 /// KIR2DS3 /// KIR2DS4 /// KIR3DL3 /// KIR3DL3 /// KIR3DS1 (11738374_at) / Fold change /veh KIR2DL2 /// KIR2DL4 /// KIR2DL5A /// KIR2DL5B /// KIR2DS1 /// KIR2DS2 /// KIR2DS3 /// KIR2DS4 /// KIR3DL3 /// KIR3DL3 /// KIR3DS1 (11738374_at) / RFU C1QL1 (11718748_at) / Fold change /veh C1QL1 (11718748_at) / RFU TMPRSS4 (11747572_a_at) / Fold change /veh TMPRSS4 (11747572_a_at) / RFU HAMP (11756126_x_at) / Fold change /veh HAMP (11756126_x_at) / RFU RNFT2 (11725882_a_at) / Fold change /veh RNFT2 (11725882_a_at) / RFU NR4A2 (11747474_a_at) / Fold change /veh NR4A2 (11747474_a_at) / RFU ABCC12 (11746883_a_at) / Fold change /veh ABCC12 (11746883_a_at) / RFU TMEM136 (11760407_x_at) / Fold change /veh TMEM136 (11760407_x_at) / RFU CLDN22 /// WWC2 (11732394_at) / Fold change /veh CLDN22 /// WWC2 (11732394_at) / RFU HLA-DPB1 (11760878_x_at) / Fold change /veh HLA-DPB1 (11760878_x_at) / RFU SPINT1 (11716480_a_at) / Fold change /veh SPINT1 (11716480_a_at) / RFU GAP43 (11754022_s_at) / Fold change /veh GAP43 (11754022_s_at) / RFU A4GNT (11735810_at) / Fold change /veh A4GNT (11735810_at) / RFU PRB3 (11715151_x_at) / Fold change /veh PRB3 (11715151_x_at) / RFU TUBB4B (11761932_at) / Fold change /veh TUBB4B (11761932_at) / RFU CAPN14 (11732068_a_at) / Fold change /veh CAPN14 (11732068_a_at) / RFU TMCC2 (11721928_a_at) / Fold change /veh TMCC2 (11721928_a_at) / RFU IRGQ (11745062_a_at) / Fold change /veh IRGQ (11745062_a_at) / RFU FAM174B (11720279_a_at) / Fold change /veh FAM174B (11720279_a_at) / RFU TMPRSS4 (11748680_a_at) / Fold change /veh TMPRSS4 (11748680_a_at) / RFU FAM212B (11763350_a_at) / Fold change /veh FAM212B (11763350_a_at) / RFU PLEKHG5 (11743358_a_at) / Fold change /veh PLEKHG5 (11743358_a_at) / RFU ZSCAN30 (11745921_a_at) / Fold change /veh ZSCAN30 (11745921_a_at) / RFU CMKLR1 (11741424_a_at) / Fold change /veh CMKLR1 (11741424_a_at) / RFU LOC101060620 /// MAPK8IP1 (11723275_at) / Fold change /veh LOC101060620 /// MAPK8IP1 (11723275_at) / RFU SPTSSB (11747773_x_at) / Fold change /veh SPTSSB (11747773_x_at) / RFU PRSS12 (11739890_at) / Fold change /veh PRSS12 (11739890_at) / RFU BIN1 (11741810_x_at) / Fold change /veh BIN1 (11741810_x_at) / RFU WNT11 (11732464_a_at) / Fold change /veh WNT11 (11732464_a_at) / RFU C10orf10 (11716521_a_at) / Fold change /veh C10orf10 (11716521_a_at) / RFU C5orf56 (11738089_at) / Fold change /veh C5orf56 (11738089_at) / RFU CYB561 (11721691_x_at) / Fold change /veh CYB561 (11721691_x_at) / RFU ANKRD19P (11752326_a_at) / Fold change /veh ANKRD19P (11752326_a_at) / RFU OR2T12 /// OR2T33 /// OR2T8 (11738714_s_at) / Fold change /veh OR2T12 /// OR2T33 /// OR2T8 (11738714_s_at) / RFU VCAN (11748164_a_at) / Fold change /veh VCAN (11748164_a_at) / RFU JSRP1 (11732532_at) / Fold change /veh JSRP1 (11732532_at) / RFU KRTAP10-11 (11738290_x_at) / Fold change /veh KRTAP10-11 (11738290_x_at) / RFU MYO3A (11730013_a_at) / Fold change /veh MYO3A (11730013_a_at) / RFU EBF3 (11725865_a_at) / Fold change /veh EBF3 (11725865_a_at) / RFU CAMK2N1 (11719241_x_at) / Fold change /veh CAMK2N1 (11719241_x_at) / RFU C5orf56 (11738088_a_at) / Fold change /veh C5orf56 (11738088_a_at) / RFU OLFML3 (11715873_a_at) / Fold change /veh OLFML3 (11715873_a_at) / RFU LOC100653217 /// NTM (11731650_a_at) / Fold change /veh LOC100653217 /// NTM (11731650_a_at) / RFU MAPK11 (11762145_a_at) / Fold change /veh MAPK11 (11762145_a_at) / RFU FIZ1 (11724087_x_at) / Fold change /veh FIZ1 (11724087_x_at) / RFU OASL (11726364_x_at) / Fold change /veh OASL (11726364_x_at) / RFU SOX15 (11748057_x_at) / Fold change /veh SOX15 (11748057_x_at) / RFU CD79A (11719716_a_at) / Fold change /veh CD79A (11719716_a_at) / RFU HIST1H1D (11736915_at) / Fold change /veh HIST1H1D (11736915_at) / RFU CASKIN2 (11723855_a_at) / Fold change /veh CASKIN2 (11723855_a_at) / RFU LOC730098 (11760151_x_at) / Fold change /veh LOC730098 (11760151_x_at) / RFU OR4N2 (11742367_at) / Fold change /veh OR4N2 (11742367_at) / RFU PRRT2 (11749266_a_at) / Fold change /veh PRRT2 (11749266_a_at) / RFU SNX32 (11753110_a_at) / Fold change /veh SNX32 (11753110_a_at) / RFU CDHR5 (11726645_a_at) / Fold change /veh CDHR5 (11726645_a_at) / RFU RCAN1 (11760418_a_at) / Fold change /veh RCAN1 (11760418_a_at) / RFU FAM167A (11723789_a_at) / Fold change /veh FAM167A (11723789_a_at) / RFU FAM26E (11764081_at) / Fold change /veh FAM26E (11764081_at) / RFU ISYNA1 (11749810_s_at) / Fold change /veh ISYNA1 (11749810_s_at) / RFU ACY1 (11761880_at) / Fold change /veh ACY1 (11761880_at) / RFU 11764098_at / Fold change /veh 11764098_at / RFU SAMD14 (11745864_x_at) / Fold change /veh SAMD14 (11745864_x_at) / RFU NPB (11741838_a_at) / Fold change /veh NPB (11741838_a_at) / RFU TMPRSS6 (11731388_a_at) / Fold change /veh TMPRSS6 (11731388_a_at) / RFU KRTAP10-2 (11738614_at) / Fold change /veh KRTAP10-2 (11738614_at) / RFU ARHGAP8 /// PRR5-ARHGAP8 (11727945_x_at) / Fold change /veh ARHGAP8 /// PRR5-ARHGAP8 (11727945_x_at) / RFU KRTAP5-7 /// NADSYN1 (11734609_at) / Fold change /veh KRTAP5-7 /// NADSYN1 (11734609_at) / RFU RASL12 (11751679_a_at) / Fold change /veh RASL12 (11751679_a_at) / RFU CDKN2B (11736163_a_at) / Fold change /veh CDKN2B (11736163_a_at) / RFU PRF1 (11729649_at) / Fold change /veh PRF1 (11729649_at) / RFU, ZNF638 /// ZNF638-IT1 / Fold change vs veh, ZNF638 /// ZNF638-IT1 / RFU, PANK3 / Fold change vs veh, PANK3 / RFU, SH3YL1 / Fold change vs veh, SH3YL1 / RFU, ZEB2 / Fold change vs veh, ZEB2 / RFU, NRIP1 / Fold change vs veh, NRIP1 / RFU, PTTG1IP / Fold change vs veh, PTTG1IP / RFU, CAPN2 / Fold change vs veh, CAPN2 / RFU, MED14 / Fold change vs veh, MED14 / RFU, SNORA58 / Fold change vs veh, SNORA58 / RFU, C1orf63 / Fold change vs veh, C1orf63 / RFU, LRRFIP1 / Fold change vs veh, LRRFIP1 / RFU, NDUFAF7 / Fold change vs veh, NDUFAF7 / RFU, SLC12A2 / Fold change vs veh, SLC12A2 / RFU, IBTK / Fold change vs veh, IBTK / RFU, ESF1 / Fold change vs veh, ESF1 / Fold change vs veh, TMEM50B / RFU, TAOK1 / Fold change vs veh, TAOK1 / RFU, ACBD3 / Fold change vs veh, ACBD3 / RFU, TMA16 / Fold change vs veh, TMA16 / RFU, RWDD3 / Fold change vs veh, RWDD3 / RFU, BCAT1 / Fold change vs veh, BCAT1 / RFU, EDEM3 / Fold change vs veh, EDEM3 / RFU, TMEM33 / Fold change vs veh, TMEM33 / RFU, WDR75 / Fold change vs veh, WDR75 / RFU, AHCTF1 / Fold change vs veh, AHCTF1 / RFU, TFRC / Fold change vs veh, TFRC / RFU, ZDHHC17 / Fold change vs veh, ZDHHC17 / RFU, NOM1 / Fold change vs veh, NOM1 / RFU, ARL8B / Fold change vs veh, ARL8B / RFU, ZBTB11 / Fold change vs veh, ZBTB11 / RFU, TAMM41 / Fold change vs veh, TAMM41 / RFU, KIAA1704 /// LOC100996395 / Fold change vs veh, KIAA1704 /// LOC100996395 / RFU, ING1 / Fold change vs veh, ING1 / RFU, TRMT61B / Fold change vs veh, TRMT61B / RFU, FUBP3 / Fold change vs veh, FUBP3 / RFU, TP53 / Fold change vs veh, TP53 / RFU, TNKS2 / Fold change vs veh, TNKS2 / RFU, ZFP14 / Fold change vs veh, ZFP14 / RFU, ACTR2 / Fold change vs veh, ACTR2 / RFU, PPP3R1 / Fold change vs veh, PPP3R1 / RFU, PIK3R1 / Fold change vs veh, PIK3R1 / RFU, HNRNPA1 / Fold change vs veh, HNRNPA1 / RFU, RNF170 / Fold change vs veh, RNF170 / RFU, ZNF28 / Fold change vs veh, ZNF28 / RFU, RNGTT / Fold change vs veh, RNGTT / RFU, OGT / Fold change vs veh, OGT / RFU, BRD1 / Fold change vs veh, BRD1 / RFU, MARS / Fold change vs veh, MARS / RFU, ZNF655 / Fold change vs veh, ZNF655 / RFU, FAHD1 / Fold change vs veh, FAHD1 / RFU, BDP1 / Fold change vs veh, BDP1 / RFU, LRRCC1 / Fold change vs veh, LRRCC1 / RFU, ARID1A / Fold change vs veh, ARID1A / RFU, ZNF146 / Fold change vs veh, ZNF146 / RFU, ZNF330 / Fold change vs veh, ZNF330 / RFU, GPN3 / Fold change vs veh, GPN3 / RFU, C9orf123 / Fold change vs veh, C9orf123 / RFU, N4BP2L2 / Fold change vs veh, N4BP2L2 / RFU, ARFIP1 / Fold change vs veh, ARFIP1 / RFU, FAM179B / Fold change vs veh, FAM179B / RFU, BCL10 / Fold change vs veh, BCL10 / RFU, UHRF1BP1L / Fold change vs veh, UHRF1BP1L / RFU, BET1 / Fold change vs veh, BET1 / RFU, CNOT2 / Fold change vs veh, CNOT2 / RFU, ZNF268 / Fold change vs veh, ZNF268 / Fold change vs veh, ZNF507 / RFU, DGCR2 / Fold change vs veh, DGCR2 / RFU, WDSUB1 / Fold change vs veh, WDSUB1 / Fold change vs veh, HSP90B1 /// MIR3652 / RFU, ADSS / Fold change vs veh, ADSS / RFU, GK / Fold change vs veh, GK / RFU, ZNF148 / Fold change vs veh, ZNF148 / RFU, TAF9 / Fold change vs veh, TAF9 / RFU, SLC1A5 / Fold change vs veh, SLC1A5 / RFU, SLMO2 / Fold change vs veh, SLMO2 / RFU, ABCC4 / Fold change vs veh, ABCC4 / RFU, LOC101060439 /// RAP1B / Fold change vs veh, LOC101060439 /// RAP1B / RFU, RFX7 / Fold change vs veh, RFX7 / RFU, GTPBP10 / Fold change vs veh, GTPBP10 / RFU, CNEP1R1 / Fold change vs veh, CNEP1R1 / RFU, BIVM-ERCC5 /// ERCC5 / Fold change vs veh, BIVM-ERCC5 /// ERCC5 / RFU, ILF3 / Fold change vs veh, ILF3 / RFU 11762660_at / Fold change /veh 11762660_at / RFU VCAN (11757783_s_at) / Fold change /veh VCAN (11757783_s_at) / RFU DDX43 (11728927_at) / Fold change /veh DDX43 (11728927_at) / RFU KRT8 (11758188_x_at) / Fold change /veh KRT8 (11758188_x_at) / RFU NKD1 (11759106_at) / Fold change /veh NKD1 (11759106_at) / RFU SRD5A1 (11742802_a_at) / Fold change /veh SRD5A1 (11742802_a_at) / RFU TPSAB1 /// TPSB2 (11721975_s_at) / Fold change /veh TPSAB1 /// TPSB2 (11721975_s_at) / RFU GSTM3 (11746129_a_at) / Fold change /veh GSTM3 (11746129_a_at) / RFU IL23R (11737362_x_at) / Fold change /veh IL23R (11737362_x_at) / RFU TMEM51 (11727254_a_at) / Fold change /veh TMEM51 (11727254_a_at) / RFU PIWIL2 (11732686_x_at) / Fold change /veh PIWIL2 (11732686_x_at) / RFU ORM1 (11744905_x_at) / Fold change /veh ORM1 (11744905_x_at) / RFU CCDC152 (11743942_at) / Fold change /veh CCDC152 (11743942_at) / RFU ECM1 (11717891_a_at) / Fold change /veh ECM1 (11717891_a_at) / RFU IL23R (11748794_a_at) / Fold change /veh IL23R (11748794_a_at) / RFU TNFAIP8L3 (11732012_x_at) / Fold change /veh TNFAIP8L3 (11732012_x_at) / RFU MBOAT4 (11741988_at) / Fold change /veh MBOAT4 (11741988_at) / RFU 11764193_at / Fold change /veh 11764193_at / RFU TMEM53 (11763286_at) / Fold change /veh TMEM53 (11763286_at) / RFU MAGEB2 (11727129_at) / Fold change /veh MAGEB2 (11727129_at) / RFU TMEM200A (11744735_a_at) / Fold change /veh TMEM200A (11744735_a_at) / RFU CCDC152 (11751479_a_at) / Fold change /veh CCDC152 (11751479_a_at) / RFU FAM211A (11726209_a_at) / Fold change /veh FAM211A (11726209_a_at) / RFU RGS16 (11746705_a_at) / Fold change /veh RGS16 (11746705_a_at) / RFU VCAN (11755009_s_at) / Fold change /veh VCAN (11755009_s_at) / RFU RHOB (11743442_s_at) / Fold change /veh RHOB (11743442_s_at) / RFU RGS16 (11720943_a_at) / Fold change /veh RGS16 (11720943_a_at) / RFU RGS16 (11720944_at) / Fold change /veh RGS16 (11720944_at) / RFU, VPS4B / Fold change vs veh, VPS4B / RFU, CREB1 / Fold change vs veh, CREB1 / RFU, DNAJC13 / Fold change vs veh, DNAJC13 / RFU, GNAQ / Fold change vs veh, GNAQ / RFU, CDK5R1 / Fold change vs veh, CDK5R1 / RFU, ZRANB3 / Fold change vs veh, ZRANB3 / RFU, CUL4A / Fold change vs veh, CUL4A / RFU, CCNY / Fold change vs veh, CCNY / RFU, UFL1 / Fold change vs veh, UFL1 / RFU, COG3 / Fold change vs veh, COG3 / RFU, DIAPH2 / Fold change vs veh, DIAPH2 / RFU, SKA2 / Fold change vs veh, SKA2 / RFU, AFF3 / Fold change vs veh, AFF3 / RFU, LMF1 / Fold change vs veh, LMF1 / RFU, IPO11 / Fold change vs veh, IPO11 / RFU, DFFB / Fold change vs veh, DFFB / RFU, FOXP1 / Fold change vs veh, FOXP1 / RFU, CARD8 / Fold change vs veh, CARD8 / RFU, STRN3 / Fold change vs veh, STRN3 / RFU, ADK / Fold change vs veh, ADK / RFU, RASSF2 / Fold change vs veh, RASSF2 / RFU, WIPF1 / Fold change vs veh, WIPF1 / RFU, LARP1B / Fold change vs veh, LARP1B / RFU, RASA1 / Fold change vs veh, RASA1 / RFU, RB1 / Fold change vs veh, RB1 / RFU, PPFIA1 / Fold change vs veh, PPFIA1 / RFU, MAT2A / Fold change vs veh, MAT2A / RFU, CCT5 / Fold change vs veh, CCT5 / RFU, WDR92 / Fold change vs veh, WDR92 / RFU, CUX1 / Fold change vs veh, CUX1 / RFU, TTC7A / Fold change vs veh, TTC7A / RFU, TMEM135 / Fold change vs veh, TMEM135 / RFU, DEPTOR / Fold change vs veh, DEPTOR / RFU, CPM / Fold change vs veh, CPM / RFU, DNAJB6 / Fold change vs veh, DNAJB6 / RFU, CACNA2D3 / Fold change vs veh, CACNA2D3 / RFU, DTX4 / Fold change vs veh, DTX4 / RFU, TFCP2 / Fold change vs veh, TFCP2 / RFU, GMCL1 /// GMCL1P1 / Fold change vs veh, GMCL1 /// GMCL1P1 / RFU, AEBP2 / Fold change vs veh, AEBP2 / RFU, SNHG1 /// SNORD22 /// SNORD25 /// SNORD26 /// SNORD27 /// SNORD28 /// SNORD29 /// SNORD31 / Fold change vs veh, SNHG1 /// SNORD22 /// SNORD25 /// SNORD26 /// SNORD27 /// SNORD28 /// SNORD29 /// SNORD31 / Fold change (Aza/veh), C12orf56 (ProbeSet 11735607_a_at) / Fold change (ACY-1035/veh), C12orf56 (ProbeSet 11735607_a_at) / Fold change (Aza/veh), FGFR1OP (ProbeSet 11751329_s_at) / Fold change (ACY-1035/veh), FGFR1OP (ProbeSet 11751329_s_at) / Fold change (Aza/veh), VPS36 (ProbeSet 11739960_a_at) / Fold change (ACY-1035/veh), VPS36 (ProbeSet 11739960_a_at) / RFU SYPL1 (11715823_x_at) / Fold change /veh SYPL1 (11715823_x_at) / RFU IGFBP7 (11715501_s_at) / Fold change /veh IGFBP7 (11715501_s_at) / RFU REEP3 (11722064_at) / Fold change /veh REEP3 (11722064_at) / RFU IGLL1 (11728026_x_at) / Fold change /veh IGLL1 (11728026_x_at): dose or concentration left out as unconfirmed
Details: MV-4-11 cells, 48 hours

Nc1ncn([C@@H]2O[C@H](CO)[C@@H](O)[C@H]2O)c(=O)n1 [azacitidine]
RFU LOC100653217 /// NTM (11731650_a_at): 11.58 RFU
